Assay results reported in article PMC4368200, “Triclabendazole Sulfoxide Causes Stage-Dependent Embryolethality in Zebrafish and Mouse In Vitro” (PLoS ONE, 2015).
Entries after “also recorded” stand apart in the source; their conditions may differ. Like-named read-outs stand apart in the source and are kept apart here. Marks after values point to notes of the source that are not given here.

Columns and labels:
[1] = humans, cited from earlier work
[2] = test system: mouse embryos at the one-cell stage; test: Preimplantation whole embryo culture (preWEC); parameters: species or system B6CBAF1 mice; settings: for preWEC LOAEC (lethality): GD 0 to GD 4
Method: Female mice (6–12 weeks old) were superovulated by intraperitoneal injections of 5 IU of pregnant mare’s serum gonadotropin (Intervet, Spain) and 5 IU of human chorionic gonadotropin (Farma-Lepori, Spain), 48 h apart, and mated with adult males (2:1). Embryos at the one-cell stage were obtained 24 h after the second injection by tearing the oviducts in Hepes-buffered Chatot Ziomek Bavister medium with 150 U/ml hyaluronidase (HCZB) to dissociate the cumulus cells. Denuded embryos were then washed in HCZB and cultured for 96 h in drops of culture medium, potassium simplex optimized medium (KSOM) under oil at 37°C and 5% CO2, with or without the compounds of study. TCBZ and TCBZSO dissolved in DMSO were diluted in KSOM medium and the final DMSO concentration in the culture medium was […]. Control embryos were cultured in the presence of […]. Embryos were observed under the stereomicroscope every 24 h to assess if they were progressing normally until the blastocyst stage or, otherwise, they were arrested in a previous developmental stage. In each observation the number of embryos at the correct developmental stage (two-cells at 24 h, four-cells at 48 h, morula at 72 h and blastocyst at 96 h) were counted.
TCBZ and TCBZSO concentration ranges for the preWEC study were selected based on the results of the ZFET. The tested concentrations for this technique were 1 μM, 3 μM and 10 μM for TCBZ studies and 3 μM, 10 μM, 30 μM and 100 μM for TCBZSO studies.

zebrafish embryos = test: Zebrafish embryo test (ZFET); format: in vivo, Danio rerio; settings: for Dysmorphogenic embryos / Morphological score: 50 hpf
Method: The day before the test, adult male and female zebrafish were transferred (1:1) to breeding tanks (Aquaneering, San Diego, California). Artificial plants and marbles were used as spawning substrate. Spawning and fertilization took place within 30 min after the onset of light in the morning. Eggs were collected and extensively cleaned with ISO-standard 7346 water diluted 1:5 using deionized water. Fertilized eggs were selected under a dissection stereomicroscope (Motic SMZ168, Motic China group, LTD., China). The eggs presenting overt anomalies like asymmetries, formation of vesicles or damaged membranes were discarded.
Exposure and evaluation of eggs was performed as described before with slight variations. At 2 hours post-fertilization (hpf) fertilized eggs were selected and transferred to 6-well plates (Greiner Bio-one, Germany). Ten embryos were randomly distributed into wells and filled with 5 mL of freshly prepared test solutions. TCBZ, TCBZSO, ABZ and ABZSO were dissolved in DMSO and subsequently diluted in 0.3x Danieau’s buffer to a final DMSO concentration of 0.05% (v/v). Embryos were incubated at 26 ± 1°C with a dark-light cycle of 10–14 h for 48 h. Embryolethality was determined at 8 hpf on the basis of egg coagulation, at 26 hpf by the absence of tail detachment or somites formation, and at 50 hpf by the absence of heartbeat. Developmental and teratogenic effects were assessed at 50 hpf by the total morphological score described in [32].
The working concentrations for ZFET experiments were 0.1 μM, 0.5 μM, 1 μM, 2.5 μM and 5 μM for TCBZ studies and 0.5 μM, 1 μM, 2.5 μM, 5 μM, 10 μM and 50 μM for TCBZSO. The experiments with ABZ were performed including concentrations of 0.025 μM, 0.05 μM, 0.1 μM, 0.3 μM and 0.5 μM and for ABZSO they included 1 μM, 6 μM, 12 μM, 25 μM and 50 μM.

In the case of CSc1nc2cc(Cl)c(Oc3cccc(Cl)c3Cl)cc2[nH]1 [TCBZ, 5-chloro-6-(2,3-dichlorophenoxy)-2-(methylthio)benzimidazole], the Cmax ([1]; therapeutical dose of 10 mg/kg TCBZ, reviewed by 22, read-out: TCBZ Cmax in plasma) is given as 1.16 µM, the “Lethality 2-cells 24 h” value ([2]; 1 μM) is given as 4.2% and the “Lethality 4-cells 48 h” value ([2]; 1 μM) is given as 8.3%. For the same molecule, the “Lethality Blastocyst 96 h” value ([2]; 1 μM) was 18.8%, the “Lethality Morula 72 h” value ([2]; 1 μM) was 8.3% and the “Adverse effects in preimplantation embryos” value ([2]; 3 μM) was “did not produce any significant effect”. The “Lethality 2-cells 24 h” value ([2]; 3 μM) was 6.3%, the “Lethality 4-cells 48 h” value ([2]; 3 μM) was 6.3% and the “Lethality Blastocyst 96 h” value ([2]; 3 μM) was 20.8%. For the same molecule, the “Lethality Morula 72 h” value ([2]; 3 μM) was 10.4%, the “Lethality 2-cells 24 h” value ([2]; 10 μM) was 18.4 ^* % and the “Lethality 4-cells 48 h” value ([2]; 10 μM) was 24.5 ^* %. For the same molecule, the “Lethality Blastocyst 96 h” value ([2]; 10 μM) was 36.7%, the “Lethality Morula 72 h” value ([2]; 10 μM) was 24.5 ^* % and the “preWEC LOAEC (lethality)” value [2] was 10 µM. For the same molecule, the “Lethal concentration in preimplantation embryos, times higher than in vivo relevant concentrations” value ([2]; preWEC) was 10 times, the “Frequency of dysmorphogenesis: Developmental delay” value (zebrafish embryos; 0.1 µM) was 6.7% and the “Frequency of dysmorphogenesis: Flexion” value (zebrafish embryos; 0.1 µM) was 3.3%. For the same molecule, the “Frequency of dysmorphogenesis: Head-body pigmentation” value (zebrafish embryos; 0.1 µM) was 6.7%, the Lethality (zebrafish embryos; 0.1 μM, 2-50 hpf) was 0% and the Dysmorphogenic embryos (zebrafish embryos; 0.1 μM) was 6.7%. The Morphological score (zebrafish embryos; 0.1 μM) was 34.8 ± 1.8, the “Frequency of dysmorphogenesis: Cardiac oedema” value (zebrafish embryos; 0.5 µM) was 13.3% and the Lethality (zebrafish embryos; 0.5 μM, 2-50 hpf) was 0%. For the same molecule, the Dysmorphogenic embryos (zebrafish embryos; 0.5 μM) was 13.3%, the Morphological score (zebrafish embryos; 0.5 μM) was 34.8 ± 0.0 and the “Adverse effects in zebrafish embryos” value (zebrafish embryos; 1 μM) was “did not present any adverse effects”. For the same molecule, the “Frequency of dysmorphogenesis: Brain necrosis” value (zebrafish embryos; 1 μM) was 10%, the “Frequency of dysmorphogenesis: Cardiac oedema” value (zebrafish embryos; 1 μM) was 10% and the “Frequency of dysmorphogenesis: Flexion” value (zebrafish embryos; 1 μM) was 6.7%. The Lethality (zebrafish embryos; 1 μM, 2-50 hpf) was 0%, the Dysmorphogenic embryos (zebrafish embryos; 1 μM) was 13.3% and the Morphological score (zebrafish embryos; 1 μM) was 35.8 ± 0.4. The “Frequency of dysmorphogenesis: Developmental delay” value (zebrafish embryos; 2.5 µM) was 50%, the “Frequency of dysmorphogenesis: Flexion” value (zebrafish embryos; 2.5 µM) was 20% and the “Frequency of dysmorphogenesis: Head-body pigmentation” value (zebrafish embryos; 2.5 µM) was 50%. For the same molecule, the Lethality (zebrafish embryos; 2.5 μM, 2-50 hpf) was 0%, the Dysmorphogenic embryos (zebrafish embryos; 2.5 μM) was 60 ^* % and the Morphological score (zebrafish embryos; 2.5 μM) was 33.0 ± 3.4. For the same molecule, the Lethality (zebrafish embryos; 5 μM, 2-50 hpf) was 100 ^* %, the “ZFET LOAEC dysmorphogenesis” value (zebrafish embryos; 2-50 hpf) was 2.5 µM and the “ZFET LOAEC embryonic differentiation (total morphological score)” value (zebrafish embryos; 2-50 hpf) was 2.5 μM. For the same molecule, the “ZFET LOAEC lethality” value (zebrafish embryos; 2-50 hpf) was 5 µM.

In the case of C[S+]([O-])c1nc2cc(Oc3cccc(Cl)c3Cl)c(Cl)cc2[nH]1 (stereo not drawn) [TCBZSO, Triclabendazole sulfoxide], the Cmax ([1]; 10 mg/kg TCBZ, depending on concomitant food intake, reviewed by 22, 10 mg/kg, read-out: TCBZSO Cmax in plasma) is given as 38.6 µM, the Cmax ([1]; 10 mg/kg TCBZ, calculated from ref 43, read-out: TCBZSO Cmax in plasma) is given as 26.6 µM and the “Adverse effects in preimplantation embryos” value ([2]; 3 μM) is given as “did not induce adverse effects”. For the same molecule, the “Lethality 2-cells 24 h” value ([2]; 3 μM) was 4.2%, the “Lethality 4-cells 48 h” value ([2]; 3 μM) was 14.6% and the “Lethality Blastocyst 96 h” value ([2]; 3 μM) was 31.3%. The “Lethality Morula 72 h” value ([2]; 3 μM) was 16.7%, the “Lethality 2-cells 24 h” value ([2]; 10 μM) was 24.5 ^* % and the “Lethality 4-cells 48 h” value ([2]; 10 μM) was 30.6 ^* %. For the same molecule, the “Lethality Blastocyst 96 h” value ([2]; 10 μM) was 55.1 ^* %, the “Lethality Morula 72 h” value ([2]; 10 μM) was 36.7 ^* % and the “Lethality 2-cells 24 h” value ([2]; 30 μM) was 24.5 ^* %. For the same molecule, the “Lethality 4-cells 48 h” value ([2]; 30 μM) was 79.6 ^* %, the “Lethality Blastocyst 96 h” value ([2]; 30 μM) was 98 ^* % and the “Lethality Morula 72 h” value ([2]; 30 μM) was 95.9 ^* %. For the same molecule, the “Lethality 2-cells 24 h” value ([2]; 100 μM) was 100 ^* %, the “Lethality 4-cells 48 h” value ([2]; 100 μM) was 100 ^* % and the “Lethality Blastocyst 96 h” value ([2]; 100 μM) was 100 ^* %. For the same molecule, the “Lethality Morula 72 h” value ([2]; 100 μM) was 100 ^* %, the “preWEC LOAEC (lethality)” value [2] was 10 µM and the Lethality (zebrafish embryos; 0.5 μM, 2-50 hpf) was 17%. The Dysmorphogenic embryos (zebrafish embryos; 0.5 μM) was 0%, the Morphological score (zebrafish embryos; 0.5 μM) was 36.0 ± 0.0 and the Lethality (zebrafish embryos; 1 μM, 2-50 hpf) was 10%. For the same molecule, the Dysmorphogenic embryos (zebrafish embryos; 1 μM) was 0%, the Morphological score (zebrafish embryos; 1 μM) was 36.0 ± 0.0 and the Lethality (zebrafish embryos; 2.5 μM, 2-50 hpf) was 20%. For the same molecule, the Dysmorphogenic embryos (zebrafish embryos; 2.5 μM) was 0%, the Morphological score (zebrafish embryos; 2.5 μM) was 36.0 ± 0.0 and the Lethality (zebrafish embryos; 5 μM, 2-50 hpf) was 7%. The Dysmorphogenic embryos (zebrafish embryos; 5 μM) was 0%, the Morphological score (zebrafish embryos; 5 μM) was 36.0 ± 0.0 and the Lethality (zebrafish embryos; 10 μM, 2-50 hpf) was 35 ^* %. For the same molecule, the Dysmorphogenic embryos (zebrafish embryos; 10 μM) was 0%, the Morphological score (zebrafish embryos; 10 μM) was 36.0 ± 0.0 and the Lethality (zebrafish embryos; 50 μM, 2-50 hpf) was 100 ^* %. For the same molecule, the “ZFET LOAEC dysmorphogenesis” value (zebrafish embryos; 2-50 hpf) was “No dysmorphogenesis were observed; also recorded: not dysmorphogenic”, the “ZFET LOAEC lethality” value (zebrafish embryos; 2-50 hpf) was 10 µM and the “ZFET NOAEC” value (zebrafish embryos; 2-50 hpf) was 5 µM. The “Embryolethal concentration, times lower than ABZSO concentrations killing the embryos” value (zebrafish embryos; ZFET) was “five” and the “Embryolethal concentration, times lower than ABZSO concentrations producing malformations” value (zebrafish embryos; ZFET) was 2.5 times.
